# Patent US5776957A, “Nornicotine enantiomers for use as a treatment for dopamine related conditions and disease states” (The University of Kentucky Research Foundation, priority 1996, dated 1998)
# “Also recorded” adds a separate entry of the source. Read-outs that look alike come from different tables or passages of the source.
# How the values were obtained:
# [1] = cited from earlier work
# [2] = water, ethyl alcohol, ether, chloroform, benzene, ethyl acetate, carbon disulfide; cited from earlier work
# [3] = Locomotor activity assay, acute and repeated treatment, S(-) nicotine challenge, saline challenge; format: in vivo, rat; conditions: for behavioral sensitization after repeated administration: 8 injections once every 48 hrs, nicotine 1 mg/kg, R(+) 0.3-10 mg/kg, S(-) nornicotine 10 mg/kg; for enabling of sensitization to S(-) nicotine: repeated R(+) nornicotine, S(-) nicotine challenge
# Description: (I mg/kg), norNIC (0.3-10 mg/kg) or R(+) norNIC (0.3-10 mg/kg) was administered peripherally (s.c., 8 injections once every 48 hrs) to groups of rats and locomotor activity was assessed for 50 min immediately after each injection.
# In the present study, S(-) nicotine (1 mg/kg), R(+) nornicotine (1-10 mg/kg), S(-) nornicotine (1-10 mg/kg), or vehicle (saline) were administered s.c. to groups of rats (n=6) acutely or repeatedly (8 injections once every 48 hrs). Locomotor activity was measured during 50 min sessions immediately following drug or vehicle administration.
# Male Sprague-Hawley rats (225-250 g) from Harlan Laboratories were housed two per cage with free access to food and water.
# Activity was recorded automatically in a wooden test-chamber measuring 30×28×43 cm high. The chamber had white walls and a wire mesh floor over pine chip bedding. Two photobeams located 4.5 cm above the floor divided the chamber into four equal quadrants. Electromechanical equipment located in an adjacent room recorded photobeam interruptions automatically. A white noise generator provided an ambient 70 dB background noise in the test room in order to minimize extraneous sounds that might influence the animal's behavior in the test chamber. Rats were habituated to the chamber for 50 min on each of three consecutive days.
# On the day immediately after the third habituation session, rats were randomly divided into groups (n=6/group) and were administered s.c. either S(-) nicotine (1 mg/kg), R(+) nornicotine (0.3, 1, 3 and 10 mg/kg), or vehicle (saline) to determine acute drug effects on locomotor activity. In a separate experiment, rats (n=6/group) were administered s.c. either S(-) nicotine (1 mg/kg), S(-) nornicotine (0.3, 1, 3 and 10 mg/kg), or vehicle (saline). To determine the effect of repeated drug administration on locomotor activity, drug or vehicle was administered respectively in the test-room once every 48 hrs for a total of 8 injections. After each injection, locomotor activity was recorded during a 50 min session (five 10-min blocks). On the ninth injection day (48 hrs following injection 8), each group of rats was administered a challenge dose (1 mg/kg) of S(-) nicotine in the test-room, and locomotor activity was determined immediately thereafter. On the tenth injection day, each group of rats was administered saline and locomotor activity recorded to determine potential conditioning effects of the repeated drug administration.
# Post hoc analysis of pairwise comparisons was performed with Duncan's New Multiple Range test.
# [4] = system: nicotinic receptor sites in the brain; assay: displacement of nicotine from nicotinic receptor sites in the brain; format: binding
# [5] = system: [3H]DA-preloaded rat striatal slices (nicotinic receptors); assay: [3H]overflow (DA release) from [3H]DA-preloaded rat striatal slices; format: cell-based
# Description: In vitro pharmacological effects of NIC are generally investigated using either striatal slices or synaptosome preparations preloaded with [^3 H] DA. NIC-evoked [^3 H]overflow is obtained routinely in the presence of nomifensine (10 μM; a DA uptake inhibitor) and for pargyline (10 μM, a monoamine oxidase inhibitor) in the superfusion buffer, such that [^3 H]overflow represents primarily [^3 H]DA rather than [H]DA-metabolites (Zumstein et al., 1981, Hoffmann and Cubeddu, 1982, Dwoskin and Zahniser, 1986, Rapier et al., 1988), and for this reason, [^3 H]overflow also will be referred to as [^3 H] DA release in the proposal.
# The present studies use striatal slices superfused with various concentrations of NIC or norNIC for prolonged periods.
# FIG. 4. […] Insets illustrate the response to the low concentration range. […] NIC exposure indicated by the bar under time course. Note: 1-min sample collection period. […] N=4 rats.
# Rat striatal slices were depolarized with 10 μM NIC, 20 mM K+or 1 Hz, 60 pulses or 3 Hz, 180 pulses electrical field stimulation. […] N=4.
# MEC or DHβE was included in the superfusion buffer for 60 min prior to the addition of NIC, and superfusion continued for 60 min in the presence of NIC+antagonist.
# [6] = Stolerman et al. (1995), cited from earlier work
# [7] = i.p. [14C-N-methyl]NIC, HPLRC; cited from earlier work
# [8] = GC-MS, Deutsch et al., 1992; cited from earlier work
# [9] = NIC and metabolites in rat brain after s.c. injection of radiolabelled NIC; format: in vivo
# Text: NIC metabolism studies involving HPLRC analysis invariably utilize NIC with a radiolabel (i.e., [^3 H], [^14 C] or [^11 C]) incorporated in the methyl group. However N-demethylated NIC metabolites (norNIC and norCOT) cannot be detected after injection of such radionuclides, since the label is lost in the formation of these metabolites. NIC and four NIC metabolites have recently been detected in rat brain 4 hr after s.c. injection of [2'-^14 C]NIC (FIG. 3, Table I). Three of these metabolites have been identified as COT, norNIC and norCOT. A fourth minor metabolite (Peak B) has not been completely identified but appears to be an N-demethylated metabolite, since it is not detected in the [^3 H-N-methyl]NIC studies.
# COT, and therefore, is unlikely to originate from COT N-demethylation. 3-HydroxyCOT and its glucuronide conjugate were not detected as metabolites of either NIC or COT in brain, even though these are major biotransformation products in the periphery (Crooks, 1993).
# It appears that NIC metabolites which accumulate with a time course that correlates with the development of behavioral sensitization to NIC have a role in eliciting sensitization to NIC. The inventors have detected NIC, COT, norNIC and norCOT in brain 4 hr following acute s.c. injection of (±)[2'-^14 C]NIC. S(-) [^3 H] -N-methyl]NIC is unsuitable for studying brain metabolism of NIC, since nor-metabolites (i.e., demethylated metabolites) cannot be detected due to [^3 H]-loss during metabolism (Crooks et al., 1995b, AP 7). Thus, commercially available (±)[2'-^14 C]NIC was used to determine NIC metabolites present in brain. This form of radiolabelled NIC provides a metabolically stable [^14 C]-label which allows measurement of all potential NIC metabolites.
# A second "metabolite" (Peak A, FIG. 2) was also detected at each time point and most likely results from a combination of metabolic cleavage of the N-methyl group and dissociated-[^3 H], i e, Peak A represents an oxidized 1-carbon unit and indicates the extent of NIC N-demethylation. Note, in our subsequent studies with [2'-^14 C]NIC, Peak A was not observed, which is consistent with our interpretation of the results (Table 1).
# [10] = system: N-methyl-D-aspartate(NMDA) receptor; conditions: MK-801 site within the channel; cited from earlier work
# [11] = Stolerman et al., 1984; cited from earlier work
smiles,measurement,setting,value
CN1CCCC1=O [N-methyl-2-pyrrolidone],toxicity,[1]; Ames type assays and chronic exposure studies,not revealed any significant toxicity
same,irritation or sensitization potential,[1]; animal and human experiments,very little irritation or sensitization potential
same,miscibility,[2],miscible with water
"c1cncc([C@H]2CCCN2)c1 [R(+) nornicotine, R-(+) nornicotine]",behavioral sensitization after repeated administration,[3],did not produce behavioral sensitization; also recorded: did not result in behavioral sensitization; also recorded: does not
same,behavioral sensitization after repeated administration,[3]; listed as R(+) norNIC,does not
same,conditioned response to repeated administration (saline challenge),[3]; 48 hrs after S(-) nicotine challenge,did not contribute to the observed behavioral sensitization
same,cumulated locomotor activity after saline challenge,"[3]; R(+) experiment, 0.3 mg/kg",368 ± 39 number of photobeam interruptions/50 min session
same,cumulated locomotor activity after saline challenge,"[3]; R(+) experiment, 1.0 mg/kg",478 ± 40 number of photobeam interruptions/50 min session
same,cumulated locomotor activity after saline challenge,"[3]; R(+) experiment, 3.0 mg/kg",498 ± 44 number of photobeam interruptions/50 min session
same,cumulated locomotor activity after saline challenge,"[3]; R(+) experiment, 10 mg/kg",234 ± 30 number of photobeam interruptions/50 min session
same,locomotor activity time course,[3]; acute R(+) 0.3 mg/kg,"small, but not significant, decreases"
same,locomotor activity time course,"[3]; acute R(+) 10 mg/kg, initial 20 min",significantly decreased
same,locomotor activity time course,"[3]; acute R(+) 10 mg/kg, latter part of session",not different from the saline-control group
same,cumulated locomotor activity vs saline-control,"[3]; acute, 0.3 and 10 mg/kg, R(+) experiment",depression in activity
same,"locomotor activity, first 10 min","[3]; acute, R(+) 3 mg/kg s.c.",125±17 photobeam interruptions
same,"locomotor activity, first 10 min after S(-) nicotine challenge",[3]; repeated R(+) 1 mg/kg,127±12 photobeam interruptions
same,"locomotor activity, first 10 min after S(-) nicotine challenge",[3]; repeated R(+) 3 mg/kg,136+32 photobeam interruptions
same,locomotor activity time course,[3]; repeated R(+) 0.3-10 mg/kg,not different from that of the saline-control group
same,cumulated locomotor activity after S(-) nicotine challenge,[3]; repeated R(+) 0.3 and 1 mg/kg,not different from the saline-control group
same,"S(-) nicotine-induced stimulation, first 10 min",[3]; repeated R(+) 1-10 mg/kg,significant (P<0.001) and dose-dependent
same,cumulated locomotor activity after S(-) nicotine challenge,[3]; repeated R(+) 3 and 10 mg/kg,significant increases in activity
same,enabling of sensitization to S(-) nicotine,[3],enabled sensitization to S(-) nicotine; also recorded: dose-related sensitization to the stimulatory effect of S(-) nicotine
same,enabling of sensitization to S(-) nicotine,[3]; listed as R(+) norNIC,enabled an enhanced response to NIC challenge
same,"S(-) nicotine-induced stimulation, first 10 min","[3]; repeated, R(+) 0.3 mg/kg",not significant
same,cumulated locomotor activity vs saline-control,"[3]; repeated, R(+) 0.3 mg/kg",decreased significantly
same,tolerance to depressant effect,"[3]; repeated, R(+) 0.3 mg/kg",tolerance did not develop
same,tolerance to depressant effect,"[3]; repeated, R(+) 10 mg/kg",tolerance developed
same,cumulated locomotor activity vs saline-control,"[3]; repeated, R(+) 1, 3 and 10 mg/kg",not different from that of the saline-control group
same,displacement of nicotine from nicotinic receptor sites,[4],cause displacement of nicotine
same,release of dopamine from presynaptic terminals,[5]; neuronal tissue,stereoselective and receptor-mediated
same,cross-sensitization after chronic nicotine,[6],"increased activity, demonstrating cross-sensitization; also recorded: increased activity (i.e., cross-sensitization)"
same,"locomotor activity, acute",[6],decreased locomotor activity
same,cross-sensitization after chronic nicotine,[6]; listed as R(+) norNIC,cross-sensitization to R(+) norNIC was observed
"CN1C(=O)CC[C@H]1c1cccnc1 [COT, Cotinine]",detection in mouse brain,[7],detected
same,presence in rat brain after peripheral NIC injection,[8],not found in rat brain
same,detectability in brain at 18 hrs post-injection,[9]; 18 hrs,still detectable
same,residence time in the CNS relative to NIC,[9]; rat brain,longer residence time in the CNS than NIC
same,presence as metabolite in brain,"[9]; rat brain, after s.c. radiolabelled NIC",major metabolite of NIC in brain
same,evoked [3H]overflow,[5]; concentration-dependent,concentration dependent increase
"CNC1(C)C2CCC(C2)C1(C)C (centres unmarked) [MEC, mecamylamine]",NMDA receptor inhibition,[10],noncompetitive inhibitor
same,effect on nicotine interoceptive cues,[11],blocks nicotine interoceptive cues
same,inhibition of NIC-evoked [3H]overflow,"[5]; 10 μM NIC, concentration-dependent",robustly inhibited
same,effect on [3H]DA release itself,[5]; 0.01-100 μM,did not alter [^3 H]DA release itself
same,inhibition of norNIC-evoked [3H]overflow,[5]; high concentrations (100 μM-3 mM) of norNIC,ineffective in inhibiting
same,inhibition of norNIC-evoked [3H]overflow,[5]; low concentrations (<100 μM) of norNIC,effectively inhibited
same,mode of antagonism of norNIC response,[5]; norNIC concentration-response curve,noncompetitive
same,block of R(+) norNIC-induced decrease in locomotor activity,[6],blocked
